Reference: PMC9603373 (Microbiology Spectrum, 2022)
Marks after values point to notes of the source that are not given here.

Tests used:
[1] = system: daptomycin-susceptible, dose-dependent Enterococcus faecium (NTUH664); test: Rat infective endocarditis model, DSE; conditions: for Bacterial load in blood / Rate of sterile vegetation / Bacterial load of vegetation: Wistar rat IE, DSE MIC 0.5 mg/L; for Bacterial load in blood / Bacterial load of vegetation: mean (SD); for Bacterial load in blood / Rate of sterile vegetation: n = 3; for Bacterial load of vegetation: sacrifice 24 h after last dose, n = 3, detection limit 2 log10 CFU/g; for veg_sterile: flag 1/0;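 as to all read-outs here: male Wistar rats with catheter-induced aortic valve endocarditis, dosed for 3 days, CFU counted in vegetation and blood, saline-treated infected controls, vegetation detection limit 2 log10 CFU/g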
Experimental: Approval for animal use was obtained from the National Taiwan University Institutional Animal Care and Use Committee before the commencement of the experiments. Endocarditis was induced in male Wistar rats weighing ~330 g by using previously developed methodologies with slight modifications ([46]). To expose the right carotid artery for the placement of an intravascular catheter, the animals were anesthetized with 1 μL/g of Zoletil 50 (1 mg/mL) plus Rompun (23.32 mg/mL). A sterile polyethylene catheter (Intramedic PE-10; Clay Adams, Parsippany, NJ, USA) was inserted through a small incision and advanced 4 cm into the left ventricle. The catheter was ligated and left in place for the duration of the experiment. 24 h after the catheter was placed across the aortic valve, the bacterial inoculum, which was presuspended in saline, and 1 mL of 10^8 CFU/mL of VRE were administered intravenously via the tail vein. We evaluated the actual inoculum based on the CFU count. The rats received antibiotic treatment at 24 h or 48 h after the bacterial inoculation.
The animals were treated for 3 days. A group of infected but phosphate-buffered saline-treated rats was used as a control. 24 h after the last treatment, the animals were sacrificed via anesthetic overdose. The aortic valve vegetation and 1 mL of blood were obtained aseptically from the sacrificed animals, weighed, and homogenized in 1 mL of phosphate-buffered saline. Serial dilutions of homogenized tissues were performed, and 100 μL of each dilution, including the undiluted sample, were plated on brain heart infusion agar to enumerate the bacteria. The animals were included in the final analysis only if they survived the entire therapy and if their catheters were found across the aortic valve in the left ventricle. The detection limit of the bacterial load of vegetation was 2 log10 CFU/g.

[2] = system: vancomycin-resistant Enterococcus faecium isolate NTUH688 (DNSE); format: cell-based; conditions: broth microdilution, cation-adjusted Mueller-Hinton broth + 50 μg/mL calcium
Experimental: (§1) Blood culture isolates were obtained from a clinical microbiology laboratory. Enterococcus spp. were identified using the Vitek 2 identification system (bioMérieux Inc., La Balme les Grottes, France). The MIC of vancomycin was determined using a Sensititre GPN3F (Trek Diagnostics, West Sussex, England). […] We used cation-adjusted Mueller-Hinton broth (Becton, Dickinson, Le Pont-de-Claix, France) supplemented with 50 μg/mL calcium. The MIC breakpoints were based on the CLSI criteria of interpretation ([15]).

[3] = system: vancomycin-resistant Enterococcus faecium isolate NTUH664 (DSE); format: cell-based; conditions: broth microdilution, cation-adjusted Mueller-Hinton broth + 50 μg/mL calcium
Experimental: as §1

[4] = DSE MIC 0.5, delay 24 h, 12 mg/kg iv, rat 1 of 3 (row order)
[5] = DSE MIC 0.5, delay 24 h, 12 mg/kg iv, rat 2 of 3 (row order)
[6] = DSE MIC 0.5, delay 24 h, 12 mg/kg iv, rat 3 of 3 (row order)
[7] = DSE MIC 0.5, delay 24 h, 45 mg/kg sc, rat 1 of 3 (row order)
[8] = DSE MIC 0.5, delay 24 h, 45 mg/kg sc, rat 2 of 3 (row order)
[9] = DSE MIC 0.5, delay 24 h, 45 mg/kg sc, rat 3 of 3 (row order)
[10] = DSE MIC 0.5, delay 24 h, 90 mg/kg sc, rat 1 of 3 (row order)
[11] = DSE MIC 0.5, delay 24 h, 90 mg/kg sc, rat 2 of 3 (row order)
[12] = DSE MIC 0.5, delay 24 h, 90 mg/kg sc, rat 3 of 3 (row order)
[13] = DSE MIC 0.5, delay 48 h, 12 mg/kg iv, rat 1 of 3 (row order)
[14] = DSE MIC 0.5, delay 48 h, 12 mg/kg iv, rat 2 of 3 (row order)
[15] = DSE MIC 0.5, delay 48 h, 12 mg/kg iv, rat 3 of 3 (row order)
[16] = DSE MIC 0.5, delay 48 h, 45 mg/kg sc, rat 1 of 3 (row order)
[17] = DSE MIC 0.5, delay 48 h, 45 mg/kg sc, rat 2 of 3 (row order)
[18] = DSE MIC 0.5, delay 48 h, 45 mg/kg sc, rat 3 of 3 (row order)
[19] = DSE MIC 0.5, delay 48 h, 90 mg/kg sc, rat 1 of 3 (row order)
[20] = DSE MIC 0.5, delay 48 h, 90 mg/kg sc, rat 2 of 3 (row order)
[21] = DSE MIC 0.5, delay 48 h, 90 mg/kg sc, rat 3 of 3 (row order)
[22] = 48 h from inoculation to treatment, 12 mg/kg/day i.v. 3 days, SD
[23] = 48 h from inoculation to treatment, 45 mg/kg/day s.c. 3 days, SD

CCCCCCCCCC(=O)N[C@@H](Cc1c[nH]c2ccccc12)C(=O)N[C@H](CC(N)=O)C(=O)N[C@@H](CC(=O)O)C(=O)N[C@@H]1C(=O)NCC(=O)N[C@@H](CCCN)C(=O)N[C@@H](CC(=O)O)C(=O)N[C@H](C)C(=O)N[C@@H](CC(=O)O)C(=O)NCC(=O)N[C@H](CO)C(=O)N[C@@H]([C@H](C)CC(=O)O)C(=O)N[C@@H](CC(=O)c2ccccc2N)C(=O)O[C@@H]1C [daptomycin, Daptomycin]
blood_cfu [1, 4]: 0
log_blood_cfu [1, 4]: 0
log_veg_cfu [1, 4]: 0
veg_cfu [1, 4]: 0
blood_cfu [1, 5]: 0
log_blood_cfu [1, 5]: 0
log_veg_cfu [1, 5]: 0
veg_cfu [1, 5]: 0
blood_cfu [1, 6]: 0
log_blood_cfu [1, 6]: 0
log_veg_cfu [1, 6]: 0
veg_cfu [1, 6]: 0
blood_cfu [1, 7]: 0
log_blood_cfu [1, 7]: 0
log_veg_cfu [1, 7]: 0
veg_cfu [1, 7]: 0
blood_cfu [1, 8]: 0
log_blood_cfu [1, 8]: 0
log_veg_cfu [1, 8]: 0
veg_cfu [1, 8]: 0
blood_cfu [1, 9]: 0
log_blood_cfu [1, 9]: 0
log_veg_cfu [1, 9]: 0
veg_cfu [1, 9]: 0
blood_cfu [1, 10]: 0
log_blood_cfu [1, 10]: 0
log_veg_cfu [1, 10]: 0
veg_cfu [1, 10]: 0
blood_cfu [1, 11]: 0
log_blood_cfu [1, 11]: 0
log_veg_cfu [1, 11]: 0
veg_cfu [1, 11]: 0
blood_cfu [1, 12]: 0
log_blood_cfu [1, 12]: 0
log_veg_cfu [1, 12]: 0
veg_cfu [1, 12]: 0
blood_cfu [1, 13]: 0
log_blood_cfu [1, 13]: 0
log_veg_cfu [1, 13]: 3.4
veg_cfu [1, 13]: 2500
blood_cfu [1, 14]: 0
log_blood_cfu [1, 14]: 0
log_veg_cfu [1, 14]: 3.26
veg_cfu [1, 14]: 1800
blood_cfu [1, 15]: 0
log_blood_cfu [1, 15]: 0
log_veg_cfu [1, 15]: 3.17
veg_cfu [1, 15]: 1480
blood_cfu [1, 16]: 0
log_blood_cfu [1, 16]: 0
log_veg_cfu [1, 16]: 4.66
veg_cfu [1, 16]: 45600
blood_cfu [1, 17]: 0
log_blood_cfu [1, 17]: 0
log_veg_cfu [1, 17]: 4.38
veg_cfu [1, 17]: 23900
blood_cfu [1, 18]: 0
log_blood_cfu [1, 18]: 0
log_veg_cfu [1, 18]: 0
veg_cfu [1, 18]: 0
blood_cfu [1, 19]: 0
log_blood_cfu [1, 19]: 0
log_veg_cfu [1, 19]: 0
veg_cfu [1, 19]: 0
blood_cfu [1, 20]: 0
log_blood_cfu [1, 20]: 0
log_veg_cfu [1, 20]: 0
veg_cfu [1, 20]: 0
blood_cfu [1, 21]: 0
log_blood_cfu [1, 21]: 0
log_veg_cfu [1, 21]: 0
veg_cfu [1, 21]: 0
Bacterial load in blood ([1]; 24 h from inoculation to treatment, 12 mg/kg/day i.v. 3 days, SD): 0 (0) log10 CFU/mL
Rate of sterile vegetation ([1]; 24 h from inoculation to treatment, 12 mg/kg/day i.v. 3 days): 100
Bacterial load in blood ([1]; 24 h from inoculation to treatment, 45 mg/kg/day s.c. 3 days, SD): 0 (0) log10 CFU/mL
Rate of sterile vegetation ([1]; 24 h from inoculation to treatment, 45 mg/kg/day s.c. 3 days): 100
Bacterial load in blood ([1]; 24 h from inoculation to treatment, 90 mg/kg/day s.c. 3 days, SD): 0 (0) log10 CFU/mL
Rate of sterile vegetation ([1]; 24 h from inoculation to treatment, 90 mg/kg/day s.c. 3 days): 100
Bacterial load in blood [1, 22]: 0 (0) log10 CFU/mL
Rate of sterile vegetation ([1]; 48 h from inoculation to treatment, 12 mg/kg/day i.v. 3 days): 0
Bacterial load of vegetation [1, 22]: 3.27 (0.11) log10 CFU/g
Bacterial load in blood [1, 23]: 0 (0) log10 CFU/mL
Rate of sterile vegetation ([1]; 48 h from inoculation to treatment, 45 mg/kg/day s.c. 3 days): 0
Bacterial load of vegetation [1, 23]: 4.75 (0.42)^g log10 CFU/g
Bacterial load in blood ([1]; 48 h from inoculation to treatment, 90 mg/kg/day s.c. 3 days, SD): 0 (0) log10 CFU/mL
Rate of sterile vegetation ([1]; 48 h from inoculation to treatment, 90 mg/kg/day s.c. 3 days): 100
Bacterial load of vegetation ([1]; 48 h from inoculation to treatment, 90 mg/kg/day s.c. 3 days, 90 mg/kg/day): 0 log10 CFU/g
Bacterial load of vegetation ([1]; 48 h from inoculation to treatment, 90 mg/kg/day s.c. 3 days, 90 mg/kg/day, SD): 0 (0)^h^,^i log10 CFU/g
veg_sterile [1, 5]: 1
veg_sterile [1, 6]: 1
veg_sterile [1, 7]: 1
veg_sterile [1, 8]: 1
veg_sterile [1, 9]: 1
veg_sterile [1, 10]: 1
veg_sterile [1, 11]: 1
veg_sterile [1, 12]: 1
veg_sterile [1, 13]: 0
veg_sterile [1, 14]: 0
veg_sterile [1, 15]: 0
veg_sterile [1, 16]: 0
veg_sterile [1, 17]: 0
veg_sterile [1, 18]: 1
veg_sterile [1, 19]: 1
veg_sterile [1, 20]: 1
veg_sterile [1, 21]: 1
daptomycin MIC [2]: 8 µg/mL
daptomycin MIC [3]: 0.5 µg/mL
